Results reported in BindingDB's records for doi:10.7270/Q2TX3CSC (Vanderbilt Screening Center for GPCRs, Ion Channels and …, 2009).

Target: T1, Solute carrier family 12 member 5 (Homo sapiens, UniProt Q9H2X9)
T1 sequence (Q9H2X9 whole entry): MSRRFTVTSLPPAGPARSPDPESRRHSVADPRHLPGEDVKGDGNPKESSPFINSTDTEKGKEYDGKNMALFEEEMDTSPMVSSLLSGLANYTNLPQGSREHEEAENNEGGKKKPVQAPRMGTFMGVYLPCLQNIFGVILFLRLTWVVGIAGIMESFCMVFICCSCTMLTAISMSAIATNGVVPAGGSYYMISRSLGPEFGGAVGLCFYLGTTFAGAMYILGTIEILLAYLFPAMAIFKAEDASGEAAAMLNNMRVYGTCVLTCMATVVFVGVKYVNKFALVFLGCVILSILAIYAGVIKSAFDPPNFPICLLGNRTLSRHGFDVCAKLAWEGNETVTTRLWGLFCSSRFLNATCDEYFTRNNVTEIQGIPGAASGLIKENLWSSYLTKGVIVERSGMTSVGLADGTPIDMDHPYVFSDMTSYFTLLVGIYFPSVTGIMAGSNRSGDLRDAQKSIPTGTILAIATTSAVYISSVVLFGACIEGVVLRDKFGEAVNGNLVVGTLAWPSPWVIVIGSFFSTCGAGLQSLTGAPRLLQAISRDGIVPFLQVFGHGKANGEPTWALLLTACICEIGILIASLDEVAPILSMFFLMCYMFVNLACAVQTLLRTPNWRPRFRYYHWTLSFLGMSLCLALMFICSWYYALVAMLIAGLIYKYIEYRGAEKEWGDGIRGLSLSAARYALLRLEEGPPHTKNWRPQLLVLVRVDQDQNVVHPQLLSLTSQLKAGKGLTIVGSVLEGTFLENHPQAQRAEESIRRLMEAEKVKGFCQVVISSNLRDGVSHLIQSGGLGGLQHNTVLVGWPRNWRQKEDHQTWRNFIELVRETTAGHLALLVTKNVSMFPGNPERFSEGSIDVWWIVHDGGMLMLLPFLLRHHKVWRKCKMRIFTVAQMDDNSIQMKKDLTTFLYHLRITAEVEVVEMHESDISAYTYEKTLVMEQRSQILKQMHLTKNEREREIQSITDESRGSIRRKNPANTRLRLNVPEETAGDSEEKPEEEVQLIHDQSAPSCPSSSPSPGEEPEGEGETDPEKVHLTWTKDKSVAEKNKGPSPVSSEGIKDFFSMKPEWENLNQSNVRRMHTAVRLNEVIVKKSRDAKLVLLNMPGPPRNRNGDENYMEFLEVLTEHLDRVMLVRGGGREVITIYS
Test: KCC2 modulator potency by thallium flux, dose response, cell-based, HEK293 KCC2, FluoZin-2 fluorescence (AID 1736)

[1] = inactive by the depositor's call

Structure (SMILES): CCCn1c(N)c(C(=O)CSc2nnc(Cc3ccccc3)o2)c(=O)n(C)c1=O [6-amino-3-methyl-5-[1-oxo-2-[[5-(phenylmethyl)-1,3,4-oxadiazol-2-yl]thio]ethyl]-1-propylpyrimidine-2,4-dione]
- EC50: 0.017 µM

Structure (SMILES): Cc1nc2c(-c3ccc(Cl)cc3)c(C)[nH]n2c(=O)c1Cc1ccccc1 [6-benzyl-3-(4-chlorophenyl)-2,5-dimethylpyrazolo[1,5-a]pyrimidin-7(4H)-one]
- EC50 [1]: 43.9 µM

Structure (SMILES): CN(C)CCn1c(=S)[nH]c2ccc(Cl)cc2c1=O [6-chloro-3-[2-(dimethylamino)ethyl]-2-thioxo-2,3-dihydroquinazolin-4(1H)-one]
- EC50 [1]: 67.2 µM

Structure (SMILES): O=c1[nH]c2ccc(S(=O)(=O)N3CCN(c4ccccc4F)CC3)cc2s1 [6-{[4-(2-fluorophenyl)piperazin-1-yl]sulfonyl}-1,3-benzothiazol-2(3H)-one]
- EC50: 5.64 µM

Structure (SMILES): CCc1ccc(Nc2nnc(SCc3cc(=O)n4ccsc4n3)s2)cc1 [7-[[5-(4-ethylanilino)-1,3,4-thiadiazol-2-yl]sulfanylmethyl]-[1,3]thiazolo[3,2-a]pyrimidin-5-one]
- EC50: 0.202 µM

Structure (SMILES): COc1ccc(Nc2nnc(SCc3cc(=O)n4ccsc4n3)s2)cc1 [7-[[5-(4-methoxyanilino)-1,3,4-thiadiazol-2-yl]sulfanylmethyl]-[1,3]thiazolo[3,2-a]pyrimidin-5-one]
- EC50 [1]: 8870 µM

Structure (SMILES): CC(C)Oc1ccccc1OCCCOc1cccc2cccnc12 [8-[3-(2-isopropoxyphenoxy)propoxy]quinoline]
- EC50 [1]: 10.5 µM

Structure (SMILES): Cc1ccc2[nH]c3c(N4CCN(Cc5ccccc5)CC4)ncnc3c2c1 [8-methyl-4-[4-(phenylmethyl)-1-piperazinyl]-5H-pyrimido[5,4-b]indole]
- EC50: 2.94 µM

Structure (SMILES): O=C(C1CCN(c2nc3ccc(Br)cc3s2)CC1)N1CCC2(CC1)OCCO2 [8-{[1-(6-bromo-1,3-benzothiazol-2-yl)piperidin-4-yl]carbonyl}-1,4-dioxa-8-azaspiro[4.5]decane]
- EC50: 14.3 µM

Structure (SMILES): O=C(C1CCCN(S(=O)(=O)c2cccc3nonc23)C1)N1CCC(Cc2ccccc2)CC1 (stereo not drawn) [(1-benzofurazan-4-ylsulfonyl-3-piperidyl)-(4-benzylpiperidino)methanone]
- EC50: 3810 µM

Structure (SMILES): c1ccc(-n2cnc3cc(NCc4ccncc4)ccc32)cc1 [(1-phenylbenzimidazol-5-yl)-(4-pyridylmethyl)amine]
- EC50: 1.92 µM

Structure (SMILES): COc1ccc(NC(=S)NC(N)=Nc2nc(C)c3ccccc3n2)cc1 [(1E)-1-[amino-[(4-methyl-2-quinazolinyl)amino]methylidene]-3-(4-methoxyphenyl)thiourea]
- EC50: 4.61 µM

Structure (SMILES): COc1cc(C(=S)N2CCOCC2)cc(OC)c1OC(=O)Cc1ccccc1 [(2,6-dimethoxy-4-morpholin-4-ylcarbothioyl-phenyl) 2-phenylethanoate]
- EC50: 0.81 µM

Structure (SMILES): c1ccc(-c2csc(N=NCc3ccco3)n2)cc1 [(2-furfurylideneamino)-(4-phenylthiazol-2-yl)amine]
- EC50: 15 µM

Structure (SMILES): COc1cc(C(=S)N2CCOCC2)ccc1OC(=O)Cc1ccc(F)cc1 [(2-methoxy-4-morpholin-4-ylcarbothioyl-phenyl) 2-(4-fluorophenyl)ethanoate]
- EC50: 29.4 µM

Structure (SMILES): CC1Cc2ccccc2N1C(=O)c1ccc(N2CCCCC2)c([N+](=O)[O-])c1 (stereo not drawn) [(2-methyl-2,3-dihydroindol-1-yl)-(3-nitro-4-piperidin-1-yl-phenyl)methanone]
- EC50: 0.92 µM

Structure (SMILES): CC1Cc2ccccc2N1C(=O)c1ccc(N2CCCC2)c([N+](=O)[O-])c1 (stereo not drawn) [(2-methyl-2,3-dihydroindol-1-yl)-(3-nitro-4-pyrrolidin-1-yl-phenyl)methanone]
- EC50: 0.772 µM

Structure (SMILES): COC(=O)[C@@H](NC(=O)O[C@@H]1C(=O)c2ccc(OC)cc2O[C@H]1c1cccc(C(F)(F)F)c1)C(C)C [(2S)-2-[[(2S,3S)-4-keto-7-methoxy-2-[3-(trifluoromethyl)phenyl]chroman-3-yl]oxycarbonylamino]-3-methyl-butyric acid methyl ester]
- EC50: 1.24 µM
